Results: ChEMBL document CHEMBL4350964, “Discovery of the theobromine derivative MQS-14 that induces death of MGC-803 cells mainly through ROS-mediated mechanisms” (Eur J Med Chem, 2019)
Activity calls are given as the source filed them. The rule behind the calls is not given here.

Assays:
MGC-803 [1] = assay: Cytotoxicity against human MGC803 cells assessed as growth inhibition at 20 uM after 48 hrs by MTT assay relative to control; type: functional; conditions: MGC-803, 48 h
MGC-803 [2] = assay: Induction of apoptosis in human MGC803 cells assessed as necrotic cells at 3 uM after 24 hrs by Annexin-V-FITC/propidium iodide staining based flow cytometry (reference value: 1.5%); type: functional
MGC-803 [3] = assay: Cytotoxicity in human MGC803 cells assessed as cell viability at 6 uM after 24 hrs by MTT assay relative to control; type: functional; conditions: MGC-803, 24 h, read-out: Activity
MGC-803 [4] = assay: Induction of apoptosis in human MGC803 cells assessed as early apoptotic cells at 6 uM after 24 hrs by Annexin-V-FITC/propidium iodide staining based flow cytometry (reference value: 6.4%); type: functional
Homo sapiens [5] = species: Homo sapiens; assay: Activation of MAPK signalling in human MGC803 cells assessed as increase in JNK phosphorylation at 6 uM measured after 24 hrs in presence of NAC by Western blot analysis; type: cell-based
MGC-803 [6] = assay: Induction of apoptosis in human MGC803 cells assessed as viable cells at 9 uM after 24 hrs by Annexin-V-FITC/propidium iodide staining based flow cytometry (reference value: 90.4%); type: functional; conditions: MGC-803, 24 h, read-out: Activity
MGC-803 [7] = assay: Induction of apoptosis in human MGC803 cells assessed as necrotic cells at 9 uM after 24 hrs by Annexin-V-FITC/propidium iodide staining based flow cytometry (reference value: 1.5%); type: functional
MGC-803 [8] = assay: Induction of apoptosis in human MGC803 cells assessed as increase in cleaved caspase-7 expression up to 9 uM after 24 hrs by Western blot analysis; type: functional, cell-based
MGC-803 [9] = assay: Induction of apoptosis in human MGC803 cells assessed as necrotic cells at 6 uM after 24 hrs by Annexin-V-FITC/propidium iodide staining based flow cytometry (reference value: 1.5%); type: functional
MGC-803 [10] = assay: Cytotoxicity against human MGC803 cells assessed as reduction in cell viability at 6 uM after 24 hrs in presence of ROS scavenger N-acetyl-L-cysteine by MTT assay; type: functional, cell-based
Homo sapiens [11] = species: Homo sapiens; assay: Activation of MAPK signalling in human MGC803 cells assessed as change in p38 phosphorylation at 3 to 6 uM after 24 hrs by Western blot analysis; type: cell-based
MGC-803 [12] = assay: Effect on Cleaved caspase-9 level in human MGC803 cells assessed decrease in cleaved caspase-9 expression at 6 uM after 24 hrs in presence of NAC by Western blot analysis; type: functional, cell-based
MGC-803 [13] = assay: Induction of apoptosis in human MGC803 cells assessed as increase in cleaved caspase-3 expression up to 9 uM after 24 hrs by Western blot analysis; type: functional, cell-based
MGC-803 [14] = assay: Antiproliferative activity against human MGC803 cells assessed as inhibition of cell division measured after 24 hrs by CFDA-SE staining based flow cytometric analysis; type: functional
MGC-803 [15] = assay: Induction of apoptosis in human MGC803 cells assessed as late apoptotic cells at 6 uM after 24 hrs by Annexin-V-FITC/propidium iodide staining based flow cytometry (reference value: 1.8%); type: functional
MGC-803 [16] = assay: Induction of apoptosis in human MGC803 cells assessed as early apoptotic cells at 3 uM after 24 hrs by Annexin-V-FITC/propidium iodide staining based flow cytometry (reference value: 6.4%); type: functional
MGC-803 [17] = assay: Antiproliferative activity against human MGC803 cells assessed as inhibition of cell proliferation preincubated for 16 hrs followed by Edu addition and measured after 8 hrs by Hoechst 33342 staining-based confocal laser scanning microscopic analysis; type: functional
Homo sapiens [18] = species: Homo sapiens; assay: Activation of MAPK signalling in human MGC803 cells assessed as decrease in ERK phosphorylation measured after 24 hrs in presence of NAC by Western blot analysis; type: cell-based
GES1 = assay: Cytotoxicity against human GES-1 cells assessed as reduction in cell viability by MTT assay; type: cell-based
MGC-803 [19] = assay: Cytotoxicity in human MGC803 cells assessed as cell viability at 6 uM pretreated with pan-caspase inhibitor Z-VAD-fmk for 1 hr followed by compound addition and measured after 24 hrs by MTT assay relative to control; type: functional; conditions: read-out: Activity
MGC-803 [20] = assay: Effect on Cleaved caspase-7 level in human MGC803 cells assessed decrease in cleaved caspase-7 expression at 6 uM after 24 hrs in presence of NAC by Western blot analysis; type: functional, cell-based
MGC-803 [21] = assay: Cytotoxicity against human MGC803 cells assessed as reduction in cell viability by MTT assay; type: functional, cell-based
[22] = Selectivity ratio of IC50 for human GES-1 cells to IC50 for human MGC803 cells; type: toxicity; conditions: GES-1 cells and MGC803 cells, read-out: Ratio IC50
MGC-803 [23] = assay: Induction of mitochondrial dysfunction in human MGC803 cells assessed as reduction in mitochondrial potential at 3 to 9 uM after 24 hrs by JC-1 staining based flow cytometry; type: functional, cell-based
MGC-803 [24] = assay: Induction of apoptosis in human MGC803 cells assessed as increase in cleaved caspase-9 expression up to 9 uM after 24 hrs by Western blot analysis; type: functional, cell-based
HGC-27 = assay: Cytotoxicity against human HGC27 cells assessed as reduction in cell viability by MTT assay; type: functional, cell-based
MGC-803 [25] = assay: Induction of apoptosis in human MGC803 cells assessed as late apoptotic cells at 3 uM after 24 hrs by Annexin-V-FITC/propidium iodide staining based flow cytometry (reference value: 1.8%); type: functional
MGC-803 [26] = assay: Induction of apoptosis in human MGC803 cells assessed as viable cells at 3 uM after 24 hrs by Annexin-V-FITC/propidium iodide staining based flow cytometry (reference value: 90.4%); type: functional; conditions: MGC-803, 24 h, read-out: Activity
MGC-803 [27] = assay: Induction of apoptosis in human MGC803 cells assessed as viable cells at 6 uM after 24 hrs by Annexin-V-FITC/propidium iodide staining based flow cytometry (reference value: 90.4%); type: functional; conditions: MGC-803, 24 h, read-out: Activity
MGC-803 [28] = assay: Induction of apoptosis in human MGC803 cells assessed as early apoptotic cells at 9 uM after 24 hrs by Annexin-V-FITC/propidium iodide staining based flow cytometry (reference value: 6.4%); type: functional
SGC-7901 = assay: Cytotoxicity against human SGC7901 cells assessed as reduction in cell viability by MTT assay; type: functional, cell-based
Homo sapiens [29] = species: Homo sapiens; assay: Activation of MAPK signalling in human MGC803 cells assessed as decrease in ERK phosphorylation at 3 to 6 uM after 24 hrs by Western blot analysis; type: cell-based
MGC-803 [30] = assay: Induction of DNA damage in human MGC803 cells assessed as formation of DNA long tailing at 6 uM by comet assay; type: functional, cell-based
MGC-803 [31] = assay: Induction of apoptosis in human MGC803 cells assessed as late apoptotic cells at 9 uM after 24 hrs by Annexin-V-FITC/propidium iodide staining based flow cytometry (reference value: 1.8%); type: functional
MGC-803 [32] = assay: Induction of DNA damage in human MGC803 cells assessed as formation of DNA long tailing at 6 uM in presence of NAC by comet assay; type: functional, cell-based
Homo sapiens [33] = species: Homo sapiens; assay: Activation of MAPK signalling in human MGC803 cells assessed as increase in JNK phosphorylation at 3 to 6 uM after 24 hrs by Western blot analysis; type: cell-based
MGC-803 [34] = assay: Effect on Cleaved PARP level in human MGC803 cells assessed decrease in cleaved PARP expression at 6 uM after 24 hrs in presence of NAC by Western blot analysis; type: functional, cell-based
MGC-803 [35] = assay: Induction of ROS generation in human MGC803 cells after 24 hrs by DCFH-DA dye based flow cytometry; type: functional, cell-based
MGC-803 [36] = assay: Induction of apoptosis in human MGC803 cells assessed as increase in cleaved PARP expression up to 9 uM after 24 hrs by Western blot analysis; type: functional, cell-based

Cn1cnc2c1c(=O)n(CC(=O)OC(C)(C)C)c(=O)n2C
inhibition at 20 µM (MGC-803 [1]): 17.2%

CCCn1c(SCC(=O)Nc2ccc(C)cc2)nc2c1c(=O)[nH]c(=O)n2C
inhibition at 20 µM (MGC-803 [1]): 42.2%

C#CCN1CCN(C(=O)Cn2c(=O)c3c(ncn3C)n(C)c2=O)CC1
inhibition at 20 µM (MGC-803 [1]): 14.1%

CN1CCN(C(=O)Cn2c(=O)c3c(ncn3C)n(C)c2=O)CC1
inhibition at 20 µM (MGC-803 [1]): 8.6%

Cn1cnc2c1c(=O)n(CC(=O)N1CCN(C(=O)OC(C)(C)C)CC1)c(=O)n2C
inhibition at 20 µM (MGC-803 [1]): 20%

Cc1ccc(S(=O)(=O)N2CCN(C(=O)Cn3c(=O)c4c(ncn4C)n(C)c3=O)CC2)cc1
inhibition at 20 µM (MGC-803 [1]): 20.1%

Cn1cnc2c1c(=O)n(CC(=O)N1CCN(C(=O)/C=C/c3ccccc3)CC1)c(=O)n2C
inhibition at 20 µM (MGC-803 [1]): 9.5%

CCCn1c(SCc2ccc(C(C)(C)C)cc2)nc2c1c(=O)[nH]c(=O)n2C
inhibition at 20 µM (MGC-803 [1]): 10.3%

CCCn1c(SCc2ccccc2C)nc2c1c(=O)[nH]c(=O)n2C
Activity (MGC-803 [2]): 1.5% | viability at 6 µM (MGC-803 [3]): 66% | Activity (MGC-803 [4]): 41.9% | Activity (Homo sapiens [5]): inactive | viability at 9 µM (MGC-803 [6]): 23.1% | Activity (MGC-803 [7]): 0.9% | Activity (MGC-803 [8]): Active | Activity (MGC-803 [9]): 0.7% | Activity (MGC-803 [10]): inactive | Activity (Homo sapiens [11]): Active | Activity (MGC-803 [12]): Active | Activity (MGC-803 [13]): Active | inhibition (MGC-803 [14]): Dose-dependent effect | Activity (MGC-803 [15]): 2.4% | Activity (MGC-803 [16]): 25.4% | inhibition (MGC-803 [17]): Dose-dependent effect | Activity (Homo sapiens [18]): inactive | IC50 (GES1): 13 µM | viability at 6 µM (MGC-803 [19]): 93% | Activity (MGC-803 [20]): Active | IC50 (MGC-803 [21]): 6.6 µM | selectivity ratio [22]: 2 to 3 | Activity (MGC-803 [23]): Dose-dependent effect | Activity (MGC-803 [24]): Active | IC50 (HGC-27): 9.1 µM | Activity (MGC-803 [25]): 1.7% | viability at 3 µM (MGC-803 [26]): 71.5% | viability at 6 µM (MGC-803 [27]): 55% | Activity (MGC-803 [28]): 44% | IC50 (SGC-7901): 15 µM | Activity (Homo sapiens [29]): Dose-dependent effect | inhibition at 20 µM (MGC-803 [1]): 88.6% | Activity (MGC-803 [30]): Active | Activity (MGC-803 [31]): 32% | Activity (MGC-803 [32]): inactive | Activity (Homo sapiens [33]): Active | Activity (MGC-803 [34]): Active | Activity (MGC-803 [35]): Dose-dependent effect | Activity (MGC-803 [36]): Active

Cn1cnc2c1c(=O)n(CC(=O)N1CCC(F)(F)CC1)c(=O)n2C
inhibition at 20 µM (MGC-803 [1]): 11.3%

Cn1cnc2c1c(=O)n(CC(=O)N1CCN(c3ccccc3)CC1)c(=O)n2C
inhibition at 20 µM (MGC-803 [1]): 4.6%

Cn1cnc2c1c(=O)n(CC(=O)O)c(=O)n2C
inhibition at 20 µM (MGC-803 [1]): 0.8%

CCCn1c(SCc2ccc([N+](=O)[O-])cc2)nc2c1c(=O)[nH]c(=O)n2C
inhibition at 20 µM (MGC-803 [1]): 19.8%

CCCn1c(SCc2cccc(OC)c2)nc2c1c(=O)[nH]c(=O)n2C
inhibition at 20 µM (MGC-803 [1]): 34.2%

CCCn1c(SCc2cccc(C)c2)nc2c1c(=O)[nH]c(=O)n2C
IC50 (GES1): 16 µM | IC50 (MGC-803 [21]): 7.2 µM | selectivity ratio [22]: 2 to 3 | IC50 (HGC-27): 10 µM | IC50 (SGC-7901): 16 µM | inhibition at 20 µM (MGC-803 [1]): 84.1%

Cn1cnc2c1c(=O)n(CC(=O)N1CCC(N3CCCCC3)CC1)c(=O)n2C
inhibition at 20 µM (MGC-803 [1]): 19.8%

Cn1cnc2c1c(=O)n(CC(=O)N1CCN(Cc3ccc(Cl)cc3)CC1)c(=O)n2C
inhibition at 20 µM (MGC-803 [1]): 22.5%

O=c1[nH]cc(F)c(=O)[nH]1 [FLUOROURACIL]
IC50 (MGC-803 [21]): 14 µM | IC50 (HGC-27): 18 µM | IC50 (SGC-7901): 21 µM

C=CCSc1nc2c(c(=O)[nH]c(=O)n2C)n1CCC
inhibition at 20 µM (MGC-803 [1]): 5.5%

CCCn1c(SCc2ccc(F)cc2)nc2c1c(=O)[nH]c(=O)n2C
IC50 (GES1): 14 µM | IC50 (MGC-803 [21]): 5.4 µM | selectivity ratio [22]: 2 to 3 | IC50 (HGC-27): 9.7 µM | IC50 (SGC-7901): 15 µM | inhibition at 20 µM (MGC-803 [1]): 86.5%

Cn1cnc2c1c(=O)n(CC(=O)N1CCSCC1)c(=O)n2C
inhibition at 20 µM (MGC-803 [1]): 5.6%

Cn1cnc2c1c(=O)n(CC(=O)N1CCCCC1)c(=O)n2C
inhibition at 20 µM (MGC-803 [1]): 16.8%

Cn1cnc2c1c(=O)n(CC(=O)N1CCOCC1)c(=O)n2C
inhibition at 20 µM (MGC-803 [1]): 19.9%

C=CC(=O)N1CCN(C(=O)Cn2c(=O)c3c(ncn3C)n(C)c2=O)CC1
inhibition at 20 µM (MGC-803 [1]): 1.3%
